# According to PubChem BioAssay (NCI):
#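 These data come from cells grown in 96-well plates and exposed to compound for 48 hours at five concentrations. TGI: total growth inhibition.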
# Columns and labels:
# Assay in all cases: NCI tumour cell line growth inhibition, 48 h
# [1] = tested on: MDA-MB-231 breast
# [2] = tested on: TK-10 renal
# [3] = tested on: MDA-N
# [4] = tested on: T-47D breast
# [5] = tested on: M14 melanoma
# [6] = tested on: KM20L2 colon
# [7] = tested on: ACHN renal
# [8] = tested on: P388/ADR leukemia
# [9] = tested on: M19-MEL melanoma
Compound,TGI [1] [µM],TGI [2] [µM],TGI [3] [µM],TGI [4] [µM],TGI [5] [µM],TGI [6] [µM],TGI [7] [µM],TGI [8] [µM],TGI [9] [µM]
O=C1CC(=O)c2c(O)cc(O)c(c2O)-c2c(ccc(O)c2O)C2=CC(=O)c3c(O)cc(O)c(c3O2)-c2c1ccc(O)c2O (tested in a mixture with another compound),> 50,> 50,> 50,> 50,> 50,–,–,–,–
O=C(CC/C=C(/CS(=O)(=O)c1ccccc1)S(=O)(=O)c1ccccc1)c1ccccc1,–,> 100,–,–,> 100,> 100,> 100,–,–
Nc1nc2c(c(=O)[nH]1)N(C=O)C(CNc1ccc(C(=O)N[C@@H](CCC(=O)O)C(=O)O)cc1)CN2 (stereo partly drawn),–,–,–,–,–,> 125,–,> 125,> 125
CC(=O)OCC1OC(n2cc(F)c(=O)[nH]c2=O)C(N)C(OC(C)=O)C1OC(C)=O (stereo not drawn),–,–,–,–,–,> 100,–,> 100,> 100
CCOC(=O)c1sc2nc(SC)nc3c2c1NC(=O)CN3c1cccc(F)c1,41.3,86.8,> 100,–,50,–,27.3,–,–
C/C(=N\NS(=O)(=O)c1ccccc1)c1ccccc1,–,–,–,–,–,> 100,–,> 100,–
CC(=O)NCCC1CN(C(=O)/C=C\C#C[Si](C)(C)C)c2ccccc21 (stereo not drawn),67.3,> 100,> 100,86.4,45.5,–,> 100,–,–
